Test results published in patent publication US11384078B2, “5,6-fused-bicyclic compounds and compositions for the treatment of parasitic diseases” (NOVARTIS AG, priority 2017, dated 2022).

Legend:
Type in all cases: cell-based
[1] = tested on: Leishmania donovani axenic amastigote; experiment: In vitro assay for growth inhibition of Leishmania donovani axenic amastigote (Cell TiterGlo luminescence); details: Leishmania donovani, L. donovani axenic amastigotes in vitro; read-out: L. donovani amastigotes EC50
Method: Abbreviations as used herein below have the corresponding meaning: • CPRG Chlorophenol Red-P-D-galactopyranoside • ATP adenosine triphosphate • BSA bovine serum albumin • DMSO dimethyl sulfoxide • FBS fetal bovine serum • PBS phosphate buffered saline • RPMI 1640 Rosweli Park Memorial Institute (RPMI) 1640 medium In Vitro Assay for Growth Inhibition of Leishmania donovani Axenic Amastiqote
Leishmania donovani axenic amastigote parasites are grown at 37° C., 5% CO2 in media made of RPMI 1640, 4 mM L-glutamine, 20% heat inactivated FBS, 100 units/ml of penicillin and 100 μg/ml of streptomycin, 23 μM folic acid, 100 μM adenosine, 22 mM D-glucose, 25 mM MES. The pH of media is adjusted to 5.5 at 37° C. using HCl. 20 μL of media is first dispensed into 384 well plates and 100 nL of the compounds of invention in DMSO are added to the plate wells. At the same time control compounds and DMSO are added to plates to serve as the positive and negative controls, respectively. 40 μL of parasite culture (9600 parasites) are then added to the plate wells. The plates are then placed into incubators. After two days incubation, 20 μL of Cell TiterGlo® (Promega) is added to the plate wells. The luminescence signal of each well is measured using the Envision reader (Perkin Elmer).

[2] = tested on: Trypanosoma cruzi amastigotes cultured in 3T3 fibroblast cells; experiment: Assay for growth inhibition of kinetoplastid parasite Trypanosoma cruzi (beta-galactosidase Tulahuen strain, CPRG readout); details: Trypanosoma cruzi, Fibroblast, T. cruzi amastigotes in 3T3 fibroblast cells; read-out: Buckner infectious T. cruzi EC50
Description: Assay for Growth Inhibition of Kinetoplastid Parasite Trypanosoma cruzi
Compounds of the invention can be assayed for inhibitor activity against Trypanosoma cruzi amastigotes cultured in 3T3 fibroblast cells. The assay is done using the mammalian stage (amastigotes) of T. cruzi that replicates in the intracellular space of host cells. The host cells are initially infected with the culture-derived trypomastigotes that rapidly invade and then divide as amastigotes. The protocol uses the Tulahuen strain of T. cruzi that has been engineered to express the E. coli beta-galactosidase gene (Lac-Z) (Antimicr. Agents Chemoth. 40:2592, 1996). This allows for a colorimetric readout by using the substrate CPRG and an absorbance plate reader.
3T3 fibroblast cells are re-suspended in RPMI-1640 medium without phenol red medium supplemented with 10% FBS (heat inactivated), 100 μg/ml penicillin, and 100 μg/ml streptomycin. Forty μL of suspension (1,000 cells) is dispensed into 384-well plates and incubated overnight at 37° C. temperature and in atmosphere containing 5% CO2. The following day, 100 nL of compounds of the invention in DMSO are added to plate wells containing 3T3 cells. At the same time control compounds (benznidazole and nifurtimox) and DMSO are added to plates to serve as the positive and negative controls, respectively. After that, 10 μL of media containing 10,000 T. cruzi trypomastigotes are added to each plate well and plates are placed back into incubators. After 6 day incubation, 10 μL of reagent solution (0.6 mM CPRG, 0.6% NP-40 in PBS) is added to plates and incubated at room temperature for 2 hours. Absorbance is then measured on SpectraMax GEMINI fluorimeter to determine relative number of T. cruzi cells present in each plate well.

[3] = tested on: Trypanosoma brucei brucei (Lister 427) strain; experiment: Assay for growth inhibition against Trypanosoma brucei brucei (Cell TiterGlo ATP luminescence); details: Trypanosoma brucei, T. brucei brucei (Lister 427); read-out: T. Brucei (HAT) EC50
Method: Assay for Growth Inhibition Against Trypanosoma brucei brucei
The proliferation is quantified by the addition of Cell TiterGlo® (Promega®) a luminescent cell viability assay that measures the number of viable cells in culture based on the quantification of cellular ATP amount, which is an indicator of metabolically active cells.
Trypanosoma brucei brucei (Lister 427) strain was grown in Hirumi 9 (HMI-9) media supplemented with 10% v/v fetal bovine serum (FBS) and 10% v/v serum plus. For measurement of cell proliferation inhibition, test compounds were three fold serially diluted in duplicates to 384-well white plates, resulting in 10 dilutions for each compound. A volume of 40 μL of T. b. brucei culture (10,000 parasites/mL) was added to each well, and the assay plates were incubated at 37° C. for 2 days in a CO2 incubator. Growth inhibition was monitored by measuring ATP levels, which, is used as a surrogate marker for growth. Relative luminescence units were measured using TECAN® M1000 after 30 min of adding 40 μl of Cell TiterGlo®. IC50 values were determined by analyzing the data using HELIOS software. IC50 is defined as the lowest concentration of the compound that inhibited 50% growth of the T. b. brucei wild type strain compared to untreated controls.

| SMILES | EC50 [1] [nM] | EC50 [2] [nM] | EC50 [3] [nM] |
| --- | --- | --- | --- |
| Cc1cccnc1-c1cnc2nn(-c3cc(NC(=O)N4CC(F)(F)C4)ccc3F)cc2c1 [Compound 5, 3,3-difluoro-N-(4-fluoro-3-(5-(3-methylpyridin-2-yl)-2H-pyrazolo[3,4-b]pyridin-2-yl)phenyl)azetidine-1-carboxamide] | 3.6 | 5.3 | < 23 |
| Cc1cccnc1-c1cnc2nn(-c3cc(NC(=O)N4CC(F)C4)ccc3F)cc2c1 [Compound 6, 3-fluoro-N-(4-fluoro-3-(5-(3-methylpyridin-2-yl)-2H-pyrazolo[3,4-b]pyridin-2-yl)phenyl)azetidine-1-carboxamide] | 12 | 9.9 | < 23 |
| O=C(Nc1ccc(F)c(-n2cc3cc(-c4ccccn4)cnc3n2)c1)c1ccc(F)o1 [Compound 11, 5-fluoro-N-(4-fluoro-3-(5-(pyridin-2-yl)-2H-pyrazolo[3,4-b]pyridin-2-yl)phenyl)furan-2-carboxamide] | 2.8 | 1 | > 50000 |
| O=C(Nc1ccc(F)c(-n2cc3cc(CC4CCC4)cnc3n2)c1)N1CC(F)C1 [Compound 26, N-{3-[5-(cyclobutylmethyl)-2H-pyrazolo[3,4-b]pyridin-2-yl]-4-fluorophenyl}-3-fluoroazetidine-1-carboxamide] | 9.6 | 12 | < 23 |
| O=C(Nc1ccc(F)c(-n2cc3cc(C4CCC4)cnc3n2)c1)N1CC(F)(F)C1 [Compound 31, N-(3-{5-cyclobutyl-2H-pyrazolo[3,4-b]pyridin-2-yl}-4-fluorophenyl)-3,3-difluoroazetidine-1-carboxamide] | 6.2 | 8.3 | < 23 |
| O=C(Nc1ccc(F)c(-n2cc3cc(CC4CCC4)cnc3n2)c1)N1CC(F)(F)C1 [Compound 37, N-{3-[5-(cyclobutylmethyl)-2H-pyrazolo[3,4-b]pyridin-2-yl]-4-fluorophenyl}-3,3-difluoroazetidine-1-carboxamide] | 23 | 26 | < 23 |
| O=C(Nc1ccc(F)c(-n2cc3cc(C4CCC4)cnc3n2)c1)N1CC[C@@H](F)C1 [Compound 45, (3R)-N-(3-{5-cyclobutyl-2H-pyrazolo[3,4-b]pyridin-2-yl}-4-fluorophenyl)-3-fluoropyrrolidine-1-carboxamide] | 40 | 28 | < 23 |
| O=C(Nc1ccc(F)c(-n2cc3cc(CC4CCC4)cnc3n2)c1)N1CC[C@@H](F)C1 [Compound 51, (3R)-N-{3-[5-(cyclobutylmethyl)-2H-pyrazolo[3,4-b]pyridin-2-yl]-4-fluorophenyl}-3-fluoropyrrolidine-1-carboxamide] | 15 | 19 | < 23 |
| O=C(Nc1ccc(F)c(-n2cc3cc(CC4CCC4)cnc3n2)c1)c1ccco1 [Compound 62, N-{3-[5-(cyclobutylmethyl)-2H-pyrazolo[3,4-b]pyridin-2-yl]-4-fluorophenyl}furan-2-carboxamide] | 39 | 5.1 | < 23 |
| CC(C)c1cnc2nn(-c3cc(NC(=O)C4(C)CCCO4)ccc3F)cc2c1 (stereo not drawn) [Compound 77, N-{4-fluoro-3-[5-(propan-2-yl)-2H-pyrazolo[3,4-b]pyridin-2-yl]phenyl}-2-methyloxolane-2-carboxamide] | 17000 | 6500 | 8500 |
| CC(C)c1cnc2nn(-c3cc(NC(=O)N4CCC4)ccc3F)cc2c1 [Compound 100, N-{4-fluoro-3-[5-(propan-2-yl)-2H-pyrazolo[3,4-b]pyridin-2-yl]phenyl}azetidine-1-carboxamide] | 9.2 | 4.2 | < 23 |
| CC(C)c1cnc2nn(-c3cc(NC(=O)c4ccc(CN(C)C)o4)ccc3F)cc2c1 [Compound 111, 5-[(dimethylamino)methyl]-N-{4-fluoro-3-[5-(propan-2-yl)-2H-pyrazolo[3,4-b]pyridin-2-yl]phenyl}furan-2-carboxamide] | 8700 | 2900 | 10000 |
| CC(C)c1cnc2nn(-c3cc(NC(=O)c4ccc(C#N)o4)ccc3F)cc2c1 [Compound 112, 5-cyano-N-{4-fluoro-3-[5-(propan-2-yl)-2H-pyrazolo[3,4-b]pyridin-2-yl]phenyl}furan-2-carboxamide] | 16 | 2.8 | < 23 |
| Cc1cc(C(=O)Nc2ccc(F)c(-n3cc4cc(C(C)C)cnc4n3)c2)oc1C [Compound 114, N-{4-fluoro-3-[5-(propan-2-yl)-2H-pyrazolo[3,4-b]pyridin-2-yl]phenyl}-4,5-dimethylfuran-2-carboxamide] | 310 | 45 | 54 |
| Cc1ccoc1C(=O)Nc1ccc(F)c(-n2cc3cc(C(C)C)cnc3n2)c1 [Compound 115, N-{4-fluoro-3-[5-(propan-2-yl)-2H-pyrazolo[3,4-b]pyridin-2-yl]phenyl}-3-methylfuran-2-carboxamide] | 150 | 14 | < 23 |
| CC(C)c1cnc2nn(-c3cc(NC(=O)c4cc5ccccc5o4)ccc3F)cc2c1 [Compound 116, N-{4-fluoro-3-[5-(propan-2-yl)-2H-pyrazolo[3,4-b]pyridin-2-yl]phenyl}-1-benzofuran-2-carboxamide] | 3100 | 880 | 1500 |
| CC(C)c1cnc2nn(-c3cc(NC(=O)C4(C)CC(F)(F)C4)ccc3F)cc2c1 [Compound 117, 3,3-difluoro-N-{4-fluoro-3-[5-(propan-2-yl)-2H-pyrazolo[3,4-b]pyridin-2-yl]phenyl}-1-methylcyclobutane-1-carboxamide] | 9300 | 5500 | 13000 |
| CC(C)c1cnc2nn(-c3cc(NC(=O)C4CC(F)(F)C4)ccc3F)cc2c1 [Compound 118, 3,3-difluoro-N-{4-fluoro-3-[5-(propan-2-yl)-2H-pyrazolo[3,4-b]pyridin-2-yl]phenyl}cyclobutane-1-carboxamide] | 690 | 1100 | 1400 |
| COC(=O)C12CC(C(=O)Nc3ccc(F)c(-n4cc5cc(C(C)C)cnc5n4)c3)(C1)C2 [Compound 120, methyl 3-({4-fluoro-3-[5-(propan-2-yl)-2H-pyrazolo[3,4-b]pyridin-2-yl]phenyl}carbamoyl)bicyclo[1.1.1]pentane-1-carboxylate] | 5200 | 4300 | 1800 |
| CC(C)c1cnc2nn(-c3cc(NC(=O)N4CC(F)C4)ccc3F)cc2c1 [Compound 156, 3-fluoro-N-{4-fluoro-3-[5-(propan-2-yl)-2H-pyrazolo[3,4-b]pyridin-2-yl]phenyl}azetidine-1-carboxamide] | 9.3 | 5.1 | < 23 |
| C[C@H]1CN(c2cnc3nn(-c4cc(NC(=O)N5CC(F)C5)ccc4F)cc3c2)C[C@H](C)O1 [Compound 177, N-(3-{5-[(2S,6S)-2,6-dimethylmorpholin-4-yl]-2H-pyrazolo[3,4-b]pyridin-2-yl]-4-fluorophenyl)-3-fluoroazetidine-1-carboxamide] | 27 | 55 | < 23 |
